Columns and labels:
Assay type in all cases: cell-based
cytosolic Histone H3 = test: Western blot of Histone H3 in cytosolic fractions; conditions: HeLa cells; compared to DMSO control treatment; FIG. 19B
Description: Adherent cells formed whole cell lysates suspended in RIPA buffer containing phosphatase and protease inhibitors (Roche Inhibitor cocktails, Germany). Lysates were then spun to eliminate cell debris. Protein was quantified using the BCA Assay (Pierce, Rockford, Ill., USA) according to manufacturer's instructions using a plate reader. […] Results were then visualized and recorded using Luminata Crescendo Western HRP substrate (Millipore, UK) and an alpha imager.
Cells were fractionated using Buffer A (10 mM Hepes pH7.4; […] MgCl2, 10 mM NaCl, 0.1% NP-40, Protease and Phosphatase inhibitors) and Buffer C (10 mM Hepes pH7.4; […], 420 mM NaCl, 0.1% NP-40, Protease and Phosphatase inhibitors). […] The supernatant (cytoplasmic fraction) was carefully removed and stored at −80° C. until quantification using the BCA Assay (Pierce, Rockford, Ill., USA) according to manufacturer's instructions using a plate reader. […] Samples were then centrifuged at 12000 rpm for two minutes to remove debris, and supernatant (nuclear fraction) stored at −80° C. until quantification as described above.

[1] = tested on: CXCL10 and CCL5 expression; test: qRT-PCR of chemokine expression after DNA damaging agents, paclitaxel or nocodazole; conditions: HeLa, HCC1937 EV and MDA-MB-436 EV cells; IC-50 doses; compared to DMSO control; FIG. 14
Experimental: Reverse transcription was performed using the First Strand cDNA synthesis kit (Roche). 500 ng of RNA was reverse transcribed according to manufacturer's instructions. Exon-spanning qPCR primers were designed using Roche Universal Probe Library Assay Design Centre and were used at a concentration of 0.5 μM. The following primer sequences were used:
To preform absolute quantification from qPCR, we used a standard curve method. The efficiency of each primer set was derived from the standard curve using the following equation: E=10^(−1/slope)
The product of Reverse Transcription was diluted 1:10 in Nuclease Free Water (NFW). Each 10 μl PCR reaction, consisted of 0.5 μl of 10 μM Forward primer, 0.5 μl of 10 μM Reverse primer, 5 μl of 2× LightCycler® 480 SYBR Green I Master mix (Roche), 1.5 μl NFW and 2.5 μl diluted Reverse Transcription product. These 10 μl reactions were pipetted into wells of a LightCycler® 480 multiwell 96 plate (Roche), the plate was then sealed using clear adhesive film (Roche). The plate was placed into the LightCycler® 480 (Roche) and run with the following protocol. (95° C. for 10 mins, 45 cycles of; 95° C. for 15 secs, 55° C. for 30 secs and 72° C. for 30 secs, finishing with a melt curve for confirmation of primer specificity. All qPCR data was analysed using the LightCycler® 480 software provided by Roche. For analysis, the Cp value from a technical duplicate was calculated and the relative amount of a gene was calculated Cp value to an in-run standard curve. Each mean value was then normalised to the mean concentration of the housekeeping gene PUM1 within the corresponding sample, by dividing the concentration of the target gene by the concentration of the house keeping gene. Relative expression refers to the gene expression levels that have been normalised to the housekeeping gene and made relative to the associated control samples. From these normalized values, the fold changes for each gene were calculated and the average of three individual fold changes were derived from three independent experimental triplicates. The unpaired, two-tailed students T-test available on GraphPad Prism 5.0 software was used to detect statistical significance.
For analysis of effects of ATM, ATR and DNAPK on cytokine expression, cells were seeded in six well plates at ˜60% confluency. Following incubation overnight, small molecule inhibitors of ATM (Ku60019, Selleck Chem) at a dose of 1 μm, ATR (ETP46464, Selleck Chem) at a dose of 5 μm and DNAPK (Nu7441, Selleck Chem) at a dose of 5 μm were added. At 24 hours, RNA and protein samples were obtained for analysis. For analysis of the effects of DNA damaging agents and paclitaxel on cytokine expression, cells were seeded in six well plates at ˜60% confluency. […]

[2] = tested on: cytosolic DNA in HeLa cells; test: PicoGreen fluorescent staining of double-stranded DNA, confocal microscopy; conditions: IC50 doses, FIG. 19C
Description: We probed cytosolic fractions of DDRD positive cells MDA-436-EV and +BRCA1, and HCC1937-EV and +BRCA1 cells for the presence of Histone H3, and found Histone H3 protein expression was increased in the repair deficient lines (EV) (FIG. 19A, top panel of blots). […] PicoGreen fluorescent staining was used to detect double-stranded DNA (ds-DNA). […] This increase in cytosolic DNA was however not observed in response to treatment with Paclitaxel (HeLa+Paclitaxel IC50) (FIG. 19C).

Row | Structure (SMILES) | Histone H3 protein levels in cytosolic fraction (cytosolic Histone H3) | CXCL10 and CCL5 relative expression [1] | cytosolic DNA (PicoGreen, confocal microscopy) [2]
1 | N.N.[Cl][Pt][Cl] [cisplatin] | increased Histone H3 protein levels | upregulation of CXCL10 and CCL5 expression was stimulated in all cell lines | increased cytosolic DNA
2 | NC(=O)NO [hydroxyurea, Hydroxyurea] | increased Histone H3 protein levels | upregulation of CXCL10 and CCL5 expression was stimulated in all cell lines | increased cytosolic DNA

From patent US11254986B2, “Gene signature for immune therapies in cancer” (ALMAC DIAGNOSTICS LIMITED, priority 2015, dated 2022)
